Source: patent publication US20160175318A1, “COMPOSITIONS COMPRISING ANTIBACTERIAL AGENT AND TAZOBACTAM” (WOCKHARDT LIMITED, priority 2013, published 2016)
Where two headings read alike, the source gives them in different places.

Key:
Format in all cases: cell-based
E. cloacae M-20 = assay: MIC by agar dilution (CLSI) against highly resistant ESBL strain
Protocol: (§1) The results on activity of cefepime and other cephalosporin antibacterial agents in combination with tazobactam against highly resistant ESBL strains are given Table 1. In a typical study, overnight grown bacterial cultures were diluted appropriately and inoculated on the agar media containing doubling dilutions of the antibiotic. Observation for growth or no growth was performed after 16-20 h of incubation at 35±2° C. in ambient air. The overall procedure was performed as per Clinical and Laboratory Standards Institute (CLSI) recommendations. This experimental was followed for Examples 2-4 and 6 below (Table 2-4 and 7).

E. coli 7MP [1] = assay: as above
Protocol: as §1

E. coli B-89 [2] = assay: as above
Protocol: as §1

E. coli M50 [3] = assay: as above
Protocol: as §1

K. pneumoniae M150 = assay: as above; conditions: Klebsiella pneumoniae
Protocol: as §1

E. coli 7MP [4] = assay: Quantitative drug diffusion assay (disc, zone of inhibition, CLSI); design: key to Interpretation of zone as per CLSI recommendations: R: Resistant; I: Intermediate; S: Sensitive (Interpretation as per CLSI recommendations, 2010)
Excerpt: (§2) Activity of cefepime in combination with tazobactam and various penicillins in combination with respective ESBL inhibitors was also investigated against highly resistant ESBL strains in quantitative drug diffusion assay performed as per CLSI recommendations (Clinical and Laboratory Standards Institute (CLSI), performance Standards for Antimicrobial Susceptibility Testing, 20th Informational Supplement, M 100-S20, Volume 30, No. 1, 2010).
(§3) In a typical study, overnight grown bacterial cultures after appropriate dilution were seed inoculated in the molten, cooled agar media and plates poured. Antibiotics containing 6 mm diameter discs were place on the top of the agar surface. Zone of inhibition based observation was performed after 16-18 h of incubation at 35±2° C. in ambient air. The overall procedure was performed as per CLSI recommendations (Table 5 and 6). These assays are routinely used in determining possibility of treating a particular infection using antibiotic and/or their combinations. For example, in case of treating an infection caused by E. coli (M138) using Augmentin® [commercially available combination: Amoxicillin (500 mg)+Clavulanic acid (125 mg)], the zone inhibition values need to be in the sensitive (S) range.

E. coli B-123 = assay: as above; design: key to Interpretation of zone as per CLSI recommendations: R: Resistant; I: Intermediate; S: Sensitive (Interpretation as per CLSI recommendations, 2010)
Excerpt: as §2, §3

E. coli B-89 [5] = assay: as above; design: key to Interpretation of zone as per CLSI recommendations: R: Resistant; I: Intermediate; S: Sensitive (Interpretation as per CLSI recommendations, 2010)
Excerpt: as §2, §3

E. coli M-138 = assay: as above; design: key to Interpretation of zone as per CLSI recommendations: R: Resistant; I: Intermediate; S: Sensitive (Interpretation as per CLSI recommendations, 2010)
Excerpt: as §2, §3

E. coli M50 [6] = assay: as above; design: key to Interpretation of zone as per CLSI recommendations: R: Resistant; I: Intermediate; S: Sensitive (Interpretation as per CLSI recommendations, 2010)
Excerpt: as §2, §3

E. coli S-112 = assay: as above; design: key to Interpretation of zone as per CLSI recommendations: R: Resistant; I: Intermediate; S: Sensitive (Interpretation as per CLSI recommendations, 2010)
Excerpt: as §2, §3

[7] = E. cloacae M-20, with Tazobactam 4 mcg
[8] = E. cloacae M-20, with Tazobactam 8 mcg
[9] = E. coli 7MP, with Tazobactam 4 mcg
[10] = E. coli 7MP, with Tazobactam 8 mcg
[11] = E. coli B-89, with Tazobactam 4 mcg
[12] = E. coli B-89, with Tazobactam 8 mcg
[13] = M150, K. pneumoniae M150, with Tazobactam 4 mcg, read-out: MIC
[14] = M150, K. pneumoniae M150, with Tazobactam 8 mcg, read-out: MIC
[15] = ESBL inhibitor 0 mcg (antibiotic alone)
[16] = Table 5, with Clavulanic acid 10 mcg
[17] = Table 6, with Clavulanic acid 10 mcg

CC1(C)S[C@@H]2[C@H](NC(=O)[C@H](C(=O)O)c3ccsc3)C(=O)N2[C@H]1C(=O)O [Ticarcillin]
10 mm: Zone of Inhibition (E. coli B-89 [5]; with Clavulanic acid 10 mcg) | Zone of Inhibition (E. coli M-138; with Clavulanic acid 10 mcg) | Zone of Inhibition (E. coli S-112; with Clavulanic acid 10 mcg)
> 64 mg/L: MIC (K. pneumoniae M150; [13]) | MIC (K. pneumoniae M150; [14])
13.5 mm: Zone of Inhibition (E. coli B-123; with Clavulanic acid 10 mcg)
Nil: Zone of Inhibition (E. coli 7MP [4]; [15]) | Zone of Inhibition (E. coli 7MP [4]; with Clavulanic acid 10 mcg) | Zone of Inhibition (E. coli B-123; [15]) | Zone of Inhibition (E. coli B-89 [5]; [15]) | Zone of Inhibition (E. coli M-138; [15]) | Zone of Inhibition (E. coli S-112; [15])
11.5 mm: Zone of Inhibition (E. coli M50 [6]; with Clavulanic acid 10 mcg)
9 mm: Zone of Inhibition (E. coli M50 [6]; [15])
> 128 mg/L: MIC (E. cloacae M-20; Enterobacter cloacae, M20, 20 h, E. cloacae M-20, Tazobactam 0 mcg (antibiotic alone), read-out: MIC) | MIC (E. coli 7MP [1]; Escherichia coli, 7MP, 20 h, E. coli 7MP, Tazobactam 0 mcg (antibiotic alone), read-out: MIC) | MIC (E. coli B-89 [2]; Escherichia coli, B89, 20 h, E. coli B-89, Tazobactam 0 mcg (antibiotic alone), read-out: MIC) | MIC (E. coli M50 [3]; Escherichia coli, 20 h, Tazobactam 0 mcg (antibiotic alone), read-out: MIC) | MIC (K. pneumoniae M150; M150, K. pneumoniae M150, Tazobactam 0 mcg (antibiotic alone), read-out: MIC)
>64 mg/L: MIC (E. cloacae M-20; [7]) | MIC (E. cloacae M-20; [8]) | MIC (E. coli 7MP [1]; [9]) | MIC (E. coli 7MP [1]; [10]) | MIC (E. coli B-89 [2]; [11]) | MIC (E. coli B-89 [2]; [12]) | MIC (E. coli M50 [3]; with Tazobactam 4 mcg) | MIC (E. coli M50 [3]; with Tazobactam 8 mcg)
(R): Interpretation of zone as per CLSI recommendations (E. coli 7MP [4]; Table 5, ESBL inhibitor 0 mcg) | Interpretation of zone as per CLSI recommendations (E. coli 7MP [4]; [16]) | Interpretation of zone as per CLSI recommendations (E. coli 7MP [4]; Table 6, ESBL inhibitor 0 mcg) | Interpretation of zone as per CLSI recommendations (E. coli 7MP [4]; [17]) | Interpretation of zone as per CLSI recommendations (E. coli B-123; Table 5, ESBL inhibitor 0 mcg) | Interpretation of zone as per CLSI recommendations (E. coli B-123; [16]) | Interpretation of zone as per CLSI recommendations (E. coli B-123; Table 6, ESBL inhibitor 0 mcg) | Interpretation of zone as per CLSI recommendations (E. coli B-123; [17]) | Interpretation of zone as per CLSI recommendations (E. coli B-89 [5]; Table 5, ESBL inhibitor 0 mcg) | Interpretation of zone as per CLSI recommendations (E. coli B-89 [5]; [16]) | Interpretation of zone as per CLSI recommendations (E. coli B-89 [5]; Table 6, ESBL inhibitor 0 mcg) | Interpretation of zone as per CLSI recommendations (E. coli B-89 [5]; [17]) | Interpretation of zone as per CLSI recommendations (E. coli M-138; Table 5, ESBL inhibitor 0 mcg) | Interpretation of zone as per CLSI recommendations (E. coli M-138; [16]) | Interpretation of zone as per CLSI recommendations (E. coli M-138; Table 6, ESBL inhibitor 0 mcg) | Interpretation of zone as per CLSI recommendations (E. coli M-138; [17]) | Interpretation of zone as per CLSI recommendations (E. coli M50 [6]; Table 5, ESBL inhibitor 0 mcg) | Interpretation of zone as per CLSI recommendations (E. coli M50 [6]; [16]) | Interpretation of zone as per CLSI recommendations (E. coli M50 [6]; Table 6, ESBL inhibitor 0 mcg) | Interpretation of zone as per CLSI recommendations (E. coli M50 [6]; [17]) | Interpretation of zone as per CLSI recommendations (E. coli S-112; Table 5, ESBL inhibitor 0 mcg) | Interpretation of zone as per CLSI recommendations (E. coli S-112; [16]) | Interpretation of zone as per CLSI recommendations (E. coli S-112; Table 6, ESBL inhibitor 0 mcg) | Interpretation of zone as per CLSI recommendations (E. coli S-112; [17])

CC1(C)S[C@@H]2[C@H](NC(=O)[C@H](N)c3ccc(O)cc3)C(=O)N2[C@H]1C(=O)O [Amoxicillin]
> 64 mg/L: MIC (K. pneumoniae M150; [13]) | MIC (K. pneumoniae M150; [14])
(R): Interpretation of zone as per CLSI recommendations (E. coli 7MP [4]; Table 5, ESBL inhibitor 0 mcg) | Interpretation of zone as per CLSI recommendations (E. coli 7MP [4]; [16]) | Interpretation of zone as per CLSI recommendations (E. coli 7MP [4]; Table 6, ESBL inhibitor 0 mcg) | Interpretation of zone as per CLSI recommendations (E. coli 7MP [4]; [17]) | Interpretation of zone as per CLSI recommendations (E. coli B-123; Table 5, ESBL inhibitor 0 mcg) | Interpretation of zone as per CLSI recommendations (E. coli B-123; [16]) | Interpretation of zone as per CLSI recommendations (E. coli B-123; Table 6, ESBL inhibitor 0 mcg) | Interpretation of zone as per CLSI recommendations (E. coli B-123; [17]) | Interpretation of zone as per CLSI recommendations (E. coli B-89 [5]; Table 5, ESBL inhibitor 0 mcg) | Interpretation of zone as per CLSI recommendations (E. coli B-89 [5]; [16]) | Interpretation of zone as per CLSI recommendations (E. coli B-89 [5]; Table 6, ESBL inhibitor 0 mcg) | Interpretation of zone as per CLSI recommendations (E. coli B-89 [5]; [17]) | Interpretation of zone as per CLSI recommendations (E. coli M-138; Table 5, ESBL inhibitor 0 mcg) | Interpretation of zone as per CLSI recommendations (E. coli M-138; [16]) | Interpretation of zone as per CLSI recommendations (E. coli M-138; Table 6, ESBL inhibitor 0 mcg) | Interpretation of zone as per CLSI recommendations (E. coli M-138; [17]) | Interpretation of zone as per CLSI recommendations (E. coli M50 [6]; Table 5, ESBL inhibitor 0 mcg) | Interpretation of zone as per CLSI recommendations (E. coli M50 [6]; [16]) | Interpretation of zone as per CLSI recommendations (E. coli M50 [6]; Table 6, ESBL inhibitor 0 mcg) | Interpretation of zone as per CLSI recommendations (E. coli M50 [6]; [17]) | Interpretation of zone as per CLSI recommendations (E. coli S-112; Table 5, ESBL inhibitor 0 mcg) | Interpretation of zone as per CLSI recommendations (E. coli S-112; [16]) | Interpretation of zone as per CLSI recommendations (E. coli S-112; Table 6, ESBL inhibitor 0 mcg) | Interpretation of zone as per CLSI recommendations (E. coli S-112; [17])
>64 mg/L: MIC (E. cloacae M-20; [7]) | MIC (E. cloacae M-20; [8]) | MIC (E. coli 7MP [1]; [9]) | MIC (E. coli 7MP [1]; [10]) | MIC (E. coli B-89 [2]; [11]) | MIC (E. coli B-89 [2]; [12]) | MIC (E. coli M50 [3]; with Tazobactam 4 mcg) | MIC (E. coli M50 [3]; with Tazobactam 8 mcg)
> 128 mg/L: MIC (E. cloacae M-20; Enterobacter cloacae, M20, 20 h) | MIC (E. coli 7MP [1]; Escherichia coli, 7MP, 20 h) | MIC (E. coli B-89 [2]; Escherichia coli, B89, 20 h) | MIC (E. coli M50 [3]; Escherichia coli, M50, 20 h, Tazobactam 0 mcg (antibiotic alone)) | MIC (K. pneumoniae M150; M150)
Nil: Zone of Inhibition (E. coli 7MP [4]; [15]) | Zone of Inhibition (E. coli 7MP [4]; with Clavulanic acid 10 mcg) | Zone of Inhibition (E. coli B-123; [15]) | Zone of Inhibition (E. coli B-123; with Clavulanic acid 10 mcg) | Zone of Inhibition (E. coli B-89 [5]; [15]) | Zone of Inhibition (E. coli B-89 [5]; with Clavulanic acid 10 mcg) | Zone of Inhibition (E. coli M-138; [15]) | Zone of Inhibition (E. coli M-138; with Clavulanic acid 10 mcg) | Zone of Inhibition (E. coli M50 [6]; [15]) | Zone of Inhibition (E. coli M50 [6]; with Clavulanic acid 10 mcg) | Zone of Inhibition (E. coli S-112; [15]) | Zone of Inhibition (E. coli S-112; with Clavulanic acid 10 mcg)
